These results are taken from the supplement of paper PMC4862054.

What all share (settings): incubation time: 72 h
For experiment [1], the system named is CAL-120. The experiment is described as follows: normalised response (% of control), CellTox Green; higher = less cell death (100 = DMSO, 0 = benzethonium chloride kill control). An outline of the steps:
(§1)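 Breast cancer cell lines in 20 µl suspension were added to 384-well plates containing compound at 5 concentrations, spaced in 10-fold steps across a 10,000-fold range chosen for each compound, and incubated for 72 h. CellTox Green fluorescence was read at 485/520 nm, followed by CellTiter-Glo luminescence after 10 min at room temperature. Signals on each plate were normalised so that 0.1 % DMSO equals 100 and a positive kill control equals 0. Every value in the table is the normalised signal at one concentration of the series.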

Experiment [2] relates to CAL-51. The description is as above. An outline of the steps:
as §1

Experiment [3] relates to Hs578T. The description is as above. An outline of the steps:
as §1

The test system of experiment [4] is HDQ-P1. The description is as above. The gist of the method:
as §1

Experiment [5] relates to CAL-148. The description is as above. An outline of the steps: as §1
Experiment [6] deals with MDA-MB-231. The experiment is described as above. An outline of the steps:
as §1

In experiment [7] the test system is DU-4475. The description is as above. An outline of the steps:
as §1

Experiment [8] has as its system MCF-10A. The description is as above. An outline of the steps:
as §1

Experiment [9] concerns HCC1143. The experiment is described as above. The gist of the method: as §1
In experiment [10] the test system is MFM-223. The description is as above. An outline of the steps:
as §1

Experiment [11] has as its system BT-549. The description is as above. The gist of the method: as §1
Experiment [12] relates to HCC1599. The description is as above. The gist of the method:
as §1

Experiment [13] relates to HCC1937. The experiment is described as above. The gist of the method:
as §1

Experiment [14] deals with BT-474. Described as above. The gist of the method:
as §1

Experiment [15] deals with CAL-120. Put plainly: drug sensitivity score (DSS), CellTox Green (DSS (AUC-based score)); higher = stronger drug effect (viability inhibition or cytotoxicity); extreme values may be limits of the assay. An outline of the steps: (§2)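 Each compound occupied 5 concentrations in 10-fold steps over its own 10,000-fold range in 384-well plates, into which breast cancer cell lines were seeded as 20 µl suspension. Following 72 h of incubation, CellTox Green fluorescence (485/520 nm) was measured, and CellTiter-Glo luminescence was measured after 10 min at room temperature. Plates were individually normalised to 0.1 % DMSO and a positive kill control. From the area under the fitted dose-response curve, a drug sensitivity score was calculated.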

The subject of experiment [16] is MDA-MB-453. Described as above. The gist of the method: as §2
In experiment [17] the test system is Hs578T. The experiment is described as above. An outline of the steps:
as §2

Experiment [18] has as its system HDQ-P1. Described as above. The gist of the method:
as §2

For experiment [19], the system named is CAL-148. Described as above. An outline of the steps:
as §2

The subject of experiment [20] is MDA-MB-231. The description is as above. An outline of the steps: as §2
Experiment [21] deals with DU-4475. The experiment is described as above. The gist of the method: as §2
Experiment [22] relates to MCF-10A. Described as above. The gist of the method:
as §2

Experiment [23] relates to HCC1143. The description is as above. An outline of the steps: as §2
Experiment [24] relates to MFM-223. The description is as above. The gist of the method: as §2
Experiment [25] relates to MDA-MB-436. Described as above. An outline of the steps:
as §2

Experiment [26] relates to BT-549. The experiment is described as above. An outline of the steps:
as §2

Experiment [27] has as its system HCC1599. The description is as above. An outline of the steps: as §2
Experiment [28] deals with HCC1937. The experiment is described as above. The gist of the method:
as §2

`CCC1=C[C@@H]2CN(C1)Cc1c([nH]c3ccccc13)[C@@](C(=O)OC)(c1cc3c(cc1OC)N(C)[C@H]1[C@@](O)(C(=O)OC)[C@H](OC(C)=O)[C@]4(CC)C=CCN5CC[C@]31[C@@H]54)C2` [Vinorelbine] (10000 nM): the normalised response in [1] is 75.5%; in [2], 7%; in experiment [3], -16.6%; in experiment [4], 97.8%; in experiment [5], 80.7%; in [6] it was -5.22%. For the same compound, the normalised response in [7] worked out at 90.9%; in [8], 41.4%; in experiment [9] it was 106%; in [10] it was 42.7%; in experiment [11], 43.6%; in experiment [12] it was 70.8%. In addition, the normalised response in experiment [13] is 83.1%; in [14], 59.1%.

As for `COc1cc([C@@H]2c3cc4c(cc3[C@@H](O[C@@H]3O[C@@H]5CO[C@@H](C)O[C@H]5[C@H](O)[C@H]3O)[C@H]3COC(=O)[C@H]23)OCO4)cc(OC)c1O` [Etoposide] (10000 nM), the normalised response in experiment [1] was determined as 75.7%; in experiment [2], 36.8%; in experiment [3], 88.2%; in experiment [4], 109%; in [5], 49.6%; in experiment [6], 61%. The normalised response in [7] is 78.4%; in [8] it was 108%; in experiment [9] it was 98.3%; in experiment [10], 103%; in experiment [11], 85.4%; in experiment [12], 91%. Moreover, the normalised response in experiment [13] turned out to be 106%; in [14] it was 97.3%.

Regarding `CC(=O)Nc1ccc(C(=O)Nc2ccccc2N)cc1` [Tacedinaline], the drug sensitivity score in experiment [15], in [16], in [17], in experiment [18], in experiment [19] and in [20] was 0 in each case. The drug sensitivity score in experiment [21], in experiment [22], in experiment [23], in [24], in experiment [25] and in experiment [26] was 0 throughout. Moreover, the drug sensitivity score in [27] and in experiment [28] was 0 throughout.

In the case of `CN(N=O)C(=O)N[C@@H](C=O)[C@@H](O)[C@H](O)[C@H](O)CO` [Streptozocin] (10000 nM), the normalised response stood at 110% in [1]; 102% in [2]; 136% in [3]; 110% in experiment [4]; 107% in experiment [5]; 106% in experiment [6]. Also, the normalised response in experiment [7] amounted to 98.1%; in [8] it was 116%; in [10], 88.1%; in experiment [11] it was 96.1%; in experiment [12] it was 98.6%; in [13], 71.6%. In addition, in [14], the normalised response is 105%.
